The inhibition is the change of the read-out against control, counted positive when it falls.

The values that follow come from patent US4266077A, “Naphthalenetetrayltetrakis(sulfonylimino)-aryl multicarboxylic acids and salts thereof” (priority 1979, dated 1981).

Molecules are shown by their SMILES. Read-outs that look alike come from different tables or passages of the source.

The target of one test is T1, activated human C1 (Homo sapiens, UniProt P09871).
T1 construct: C1r and C1s cleaved to two-chain proteases
The experiment in a line: Test Code 026 (C1 inhibitor). The format is biochemical. The conditions noted are these: serial dilution assay, twofold dilutions; higher well number indicates higher activity. An excerpt: (§1) An active inhibitor protects C2 from C1 and C4; (ii) Test Code 035 (C3-C9 inhibitor): This test determines the ability of the late components of human complement (C3-C9) to lyse EAC 142 in the presence of appropriate dilutions of the test compound. An active inhibitor protects EAC 142 from lysis by human C3-C9; (iii) Test Code 036 (C-Shunt inhibitor): In this test human erythrocytes rendered fragile are lysed in autologous serum via the shunt pathway activated by cobra venom factor in the presence of appropriate dilutions of the test compound. Inhibition of the shunt pathway results in failure of lysis; (iv) Forssman Vasculitis Test: Here, the well known complement dependent lesion, Forssman vasculitis, is produced in guinea pigs by intradermal injection of rabbit anti-Forssman antiserum. […] Percent inhibition is calculated by comparison with simultaneous controls. […]

In test [1] the test system is complement activity of sera. The experiment in a line: Guinea Pig Intraperitoneal Test (GPIP). Type of test: in vivo. The settings on record: Cavia porcellus, ip, 200 mg./kg. i.p. An excerpt: An active inhibitor protects C2 from C1 and C4; (ii) Test Code 035 (C3-C9 inhibitor): This test determines the ability of the late components of human complement (C3-C9) to lyse EAC 142 in the presence of appropriate dilutions of the test compound. An active inhibitor protects EAC 142 from lysis by human C3-C9; (iii) Test Code 036 (C-Shunt inhibitor): In this test human erythrocytes rendered fragile are lysed in autologous serum via the shunt pathway activated by cobra venom factor in the presence of appropriate dilutions of the test compound. Inhibition of the shunt pathway results in failure of lysis; (iv) Forssman Vasculitis Test: Here, the well known complement dependent lesion, Forssman vasculitis, is produced in guinea pigs by intradermal injection of rabbit anti-Forssman antiserum. The lesion is measured in terms of diameter, edema and hemorrhage and the extent to which a combined index of these is inhibited by prior intraperitoneal injection of the test compound at 200 mg./kg. is then reported, unless otherwise stated; (v) Forssman Shock Test: Lethal shock is produced in guinea pigs by an i.v. injection of anti-Forssman antiserum and the harmonic mean death time of treated guinea pigs is compared with that of simultaneous controls; (vi) Complement Level Reduction Test: In this test, the above dosed guinea pigs, or others, are bled for serum and the complement level is determined in undiluted serum by the capillary tube method of U.S. Pat. No. 3,876,376 and compared to undosed control guinea pigs; (vii) Cap 50 Test: Here, appropriate amounts of the test compound are added to a pool of guinea pig serum in vitro, after which the undiluted serum capillary tube assay referred to above is run. The concentration of compound inhibiting 50% is reported; (viii) Guinea Pig Intraperitoneal Test (GPIP): Guinea pigs weighing about 300 g. are dosed intraperitoneally (i.p.) with 200 mg./kg. of the test compound dissolved in saline and adjusted to pH 7-8. Approximately 0.4 ml. blood samples, taken by orbital sinus puncture 30 minutes and one hour after injections, are collected directly into centrifuge tubes; 5 ml. blood samples, taken by decapitation 2 hours after injection are collected directly into diSPo® beakers. The samples were allowed to clot, centrifuged, and the resultant sera are assayed for complement activity using the capillary complement assay. Percent inhibition is calculated by comparison with simultaneous controls. The results appear in Table I together with results of Test Code 026, 035, 036, Cap 50 and % Inhibition.

For test [2], the system named is shunt pathway activated by cobra venom factor. The experiment in a line: Test Code 036 (C-Shunt inhibitor), lysis of human erythrocytes in autologous serum. The settings on record: serial dilution assay, twofold dilutions; higher well number indicates higher activity. Type of test: biochemical.
Text: as §1

Test [3] relates to late components of human complement (C3-C9). In words: Test Code 035 (C3-C9 inhibitor), lysis of EAC 142. The conditions noted are these: serial dilution assay, twofold dilutions; higher well number indicates higher activity. The format is biochemical.
Text: as §1

The mark [4] stands for this setting: 0.5 h, serum 30 minutes after injection, read-out: In Vivo Activity (Guinea Pig) % Inhibition Intraperitoneal, 30 minutes.
Where [5] appears, read: 1 h, serum 60 minutes after injection, read-out: In Vivo Activity (Guinea Pig) % Inhibition Intraperitoneal, 60 minutes.
[6] abbreviates: 2 h, serum 120 minutes after injection, read-out: In Vivo Activity (Guinea Pig) % Inhibition Intraperitoneal, 120 minutes.

T1 sequence (P09871 16-688): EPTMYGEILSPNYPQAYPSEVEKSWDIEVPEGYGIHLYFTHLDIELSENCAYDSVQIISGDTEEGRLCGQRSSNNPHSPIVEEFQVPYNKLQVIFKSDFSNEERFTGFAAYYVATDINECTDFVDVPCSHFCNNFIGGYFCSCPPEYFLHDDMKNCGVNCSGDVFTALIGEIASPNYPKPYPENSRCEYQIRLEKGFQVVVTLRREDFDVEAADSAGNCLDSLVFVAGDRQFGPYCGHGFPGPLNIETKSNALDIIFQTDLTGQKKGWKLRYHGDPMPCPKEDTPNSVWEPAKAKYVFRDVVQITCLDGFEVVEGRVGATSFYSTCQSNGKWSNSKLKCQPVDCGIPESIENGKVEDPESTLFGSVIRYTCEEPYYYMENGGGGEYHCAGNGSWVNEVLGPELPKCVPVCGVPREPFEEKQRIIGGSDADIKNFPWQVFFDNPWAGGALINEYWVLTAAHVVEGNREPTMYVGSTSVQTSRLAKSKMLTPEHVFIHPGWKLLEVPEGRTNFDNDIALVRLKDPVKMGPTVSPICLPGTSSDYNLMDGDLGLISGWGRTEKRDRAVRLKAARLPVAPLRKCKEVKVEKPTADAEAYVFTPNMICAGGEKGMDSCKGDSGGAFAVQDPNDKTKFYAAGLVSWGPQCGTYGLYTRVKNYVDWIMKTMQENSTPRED
T1 sequence (P00736 18-705 partner): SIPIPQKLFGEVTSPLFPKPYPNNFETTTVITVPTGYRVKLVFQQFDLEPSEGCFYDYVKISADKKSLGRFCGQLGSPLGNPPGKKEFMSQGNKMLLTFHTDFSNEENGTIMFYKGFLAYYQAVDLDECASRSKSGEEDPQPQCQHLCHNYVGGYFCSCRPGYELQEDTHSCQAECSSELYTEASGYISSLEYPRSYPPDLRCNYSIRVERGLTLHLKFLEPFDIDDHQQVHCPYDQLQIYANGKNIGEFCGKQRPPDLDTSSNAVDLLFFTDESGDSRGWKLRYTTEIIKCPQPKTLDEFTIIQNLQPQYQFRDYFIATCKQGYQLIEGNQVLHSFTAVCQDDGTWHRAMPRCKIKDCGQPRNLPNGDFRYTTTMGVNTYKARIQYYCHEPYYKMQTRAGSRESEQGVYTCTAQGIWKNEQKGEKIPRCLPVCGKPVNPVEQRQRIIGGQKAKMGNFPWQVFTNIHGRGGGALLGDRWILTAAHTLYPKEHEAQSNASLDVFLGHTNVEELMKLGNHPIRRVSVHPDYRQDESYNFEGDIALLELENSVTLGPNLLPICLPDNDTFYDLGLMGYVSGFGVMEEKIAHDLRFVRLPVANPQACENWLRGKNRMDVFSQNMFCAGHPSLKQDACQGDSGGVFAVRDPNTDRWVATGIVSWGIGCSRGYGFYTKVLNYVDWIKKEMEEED
T1 sequence (P02745 23-245 partner): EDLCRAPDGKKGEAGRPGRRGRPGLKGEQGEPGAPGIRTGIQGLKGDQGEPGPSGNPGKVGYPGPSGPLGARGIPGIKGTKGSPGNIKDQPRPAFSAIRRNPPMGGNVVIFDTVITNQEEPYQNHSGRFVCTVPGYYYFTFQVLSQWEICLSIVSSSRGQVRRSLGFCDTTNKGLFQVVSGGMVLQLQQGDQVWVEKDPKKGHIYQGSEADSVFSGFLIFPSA
T1 sequence (P02746 28-253 partner): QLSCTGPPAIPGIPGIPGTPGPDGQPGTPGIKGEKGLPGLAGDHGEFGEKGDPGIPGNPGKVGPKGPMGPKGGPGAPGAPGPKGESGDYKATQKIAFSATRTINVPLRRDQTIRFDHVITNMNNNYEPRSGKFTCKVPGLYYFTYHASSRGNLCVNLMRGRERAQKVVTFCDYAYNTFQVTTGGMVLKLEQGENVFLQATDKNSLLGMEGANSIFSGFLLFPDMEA
T1 sequence (P02747 29-245 partner): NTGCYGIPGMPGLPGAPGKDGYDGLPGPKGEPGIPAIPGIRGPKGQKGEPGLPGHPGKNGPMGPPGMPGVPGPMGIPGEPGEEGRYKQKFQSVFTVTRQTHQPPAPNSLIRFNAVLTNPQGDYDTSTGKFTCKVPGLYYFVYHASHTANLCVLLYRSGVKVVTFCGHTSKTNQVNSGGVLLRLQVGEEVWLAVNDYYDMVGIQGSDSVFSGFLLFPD

`O=C([O-])c1cc(NS(=O)(=O)c2cc(S(=O)(=O)Nc3cc(C(=O)[O-])cc(C(=O)[O-])c3)c3cc(S(=O)(=O)Nc4cc(C(=O)[O-])cc(C(=O)[O-])c4)cc(S(=O)(=O)Nc4cc(C(=O)[O-])cc(C(=O)[O-])c4)c3c2)cc(C(=O)[O-])c1.[Na+].[Na+].[Na+].[Na+].[Na+].[Na+].[Na+].[Na+]` [5,5',5",5'"-[1,3,5,7-Naphthalenetetrayltetrakis(sulfonylimino)]-tetra-1,3-benzenedicarboxylic acid, octasodium salt]: the “Cl 026 Wells” value at activated human C1 is listed as “+7 Wells”. Moreover, the inhibition at 200 mg/kg was -66% in test [1] (setting [4]), -71% in test [1] (setting [5]) and -76% in test [1] (setting [6]). Moreover, the “Shunt Inhibition 036 Wells” value in test [2] is listed as “+6 Wells”. Further, in test [3], the “C-Late 035 Wells” value is on record as “+2 Wells”.
Regarding `O=C([O-])c1cc(NS(=O)(=O)c2cc(S(=O)(=O)Nc3cc(C(=O)[O-])c(C(=O)[O-])c(C(=O)[O-])c3)c3cc(S(=O)(=O)Nc4cc(C(=O)[O-])c(C(=O)[O-])c(C(=O)[O-])c4)cc(S(=O)(=O)Nc4cc(C(=O)[O-])c(C(=O)[O-])c(C(=O)[O-])c4)c3c2)cc(C(=O)[O-])c1C(=O)[O-].[Na+].[Na+].[Na+].[Na+].[Na+].[Na+].[Na+].[Na+].[Na+].[Na+].[Na+].[Na+]` [5,5',5",5'"-[1,3,5,7-Naphthalenetetrayltetrakis[sulfonylimino)]-tetra-1,2,3-benzenetricarboxylic acid, dodecasodium salt], at activated human C1, the “Cl 026 Wells” value is recorded as “+2 Wells”. For the same molecule, the inhibition at 200 mg/kg was -80% in test [1] (setting [4]), -77% in test [1] (setting [5]) and -85% in test [1] (setting [6]). Also, the “Shunt Inhibition 036 Wells” value in test [2] is given as “+6 Wells”. Moreover, in test [3], the “C-Late 035 Wells” value is given as “+4 Wells”.
